According to patent US20070053955A1, “Compositions and methods for improving cellular survival and reducing apoptosis after ischemic episode in the brain” (NESTEC S.A., priority 2005, published 2007):

Tests used:
Assay type in all cases: in vivo
[1] = tested on: transient cerebral ischemia in an ovariectomized rat model; assay: Cerebral ischemia-induced apoptosis, DNA fragmentation by TUNEL staining after tMCA occlusion; conditions: mean of three brain regions, normalized to DAPI cell count, vs control diet (FIG. 3)
[2] = tested on: transient cerebral ischemia in an ovariectomized rat model; assay: Transient middle cerebral artery (tMCA) occlusion, ischemic lesion (infarct) volume by TTC staining; conditions: all rats, vs control diet, 60 min tMCA occlusion, 24 h reperfusion (FIG. 1)
Procedure: Animals. Female Charles Rivers Sprague-Dawley rats (250 g, Wilmington, Mass.) were acclimatized to animal facilities three days prior to surgery with a 12 hour light-dark cycle. Bilateral ovariectomy was performed 2 weeks before diet feeding began. Four weeks after the start of diet feeding, transient middle cerebral artery (tMCA) occlusion under anesthesia was performed following intraperitoneal (i.p.) injection of ketamine (60 mg/kg) and xylazine (10 mg/kg).
Diet and Hormone Administration. Fourteen to 15 rats per group were randomly assigned to one of five treatment groups. These groups were as follows: […]
All diets were fed ad libitum to the rats for four weeks. […] Also once per week, body weights and food intake were determined. […]
Middle cerebral artery occlusion and samples preparation. […] Rectal temperature was monitored and maintained between 36.5 and 37° C. with a heating pad throughout the procedure. […]
Some animals were eliminated from the study during the protocol. The number of animals quantified for lesion volume ranged from 12 to 15 per group.
Statistical methods. Results were analyzed with one-way analysis of variance (ANOVA) using Prism software(Graphpad Inc; San Diego, Calif.). The significance of differences among groups was determined by one-way ANOVA followed by Tukey's multiple comparison tests. All values were expressed as mean±SEM.

[3] = tested on: growth factors and anti-inflammatory proteins; assay: Expression of growth factors and anti-inflammatory proteins in dogs given supplemental arginine; conditions: dietary supplementation

Row | SMILES | TUNEL staining / TUNEL-positive cell counts [1] | effect on infarct size / mean infarct volume [2] | reduction of infarct volume ([2]; diets fed 4 weeks, E2 implant 1 week) [%] | expression of growth factors and anti-inflammatory proteins [3]
1 | C[C@]12CC[C@@H]3c4ccc(O)cc4CC[C@H]3[C@@H]1CC[C@@H]2O [Estradiol, 17β-estradiol] | substantial reduction in TUNEL staining | reduced infarct size | 68 | 
2 | N=C(N)NCCC[C@H](N)C(=O)O [arginine, L-arginine] |  |  |  | increased expression of multiple growth factors and anti-inflammatory proteins in a dose-dependent manner
